The results in this text go back to PubChem BioAssay AID602435 (Southern Research Specialized Biocontainment Screening …, 2012).

Where “and” joins values, the source holds several entries; their conditions need not be identical. Equal entries are not always repeated. Results filed as inconclusive are left out. Calls of active or inactive are those of the source. The rule behind the calls is not given here.

For assay [1], the system named is Mycobacterium tuberculosis H37Rv growth, 7H9 medium. As to the kind of experiment: M. tuberculosis growth inhibition, dose response, 7H9 medium, purified and synthesized samples, set 9 (AID 602435). The note with it: for IC50: measured here: IC50 growth inhibition replicates.
Experiment in assay [2]: as above
The note with it: Mycobacterium tuberculosis H37Rv growth, 7H9 medium.

For orientation: IC50 means the point on the concentration scale where inhibition reaches its midpoint. The molecule `O=C(C1CCC(CNc2c(N3CCCCC3)c(=O)c2=O)CC1)N1CCCCC1` (stereo not given) registered an IC50 in assay [1] of 25.2 µM. Take `COc1ccc(N2CCN(C(=O)c3ccc(CNc4c(N5CCOCC5)c(=O)c4=O)cc3)CC2)cc1`: in assay [1], the IC50 is 6.35 µM and 6.09 µM. Take `CC1CCCN(C(=O)c2ccc(CNc3c(N4CCCCC4)c(=O)c3=O)cc2)C1` (stereo not given): in assay [1], the IC50 amounted to 3.7 µM. Same read-out and setting: the same measure for `O=C(c1ccc(CNc2c(N3CCOCC3)c(=O)c2=O)cc1)N1CCN(c2ccccc2)CC1`: 3.45 µM; for `O=C(c1ccc(CNc2c(N3CCCC3)c(=O)c2=O)cc1)N1CCN(c2ccccc2)CC1`: 62.3 µM.

The term IC90 denotes the point of the concentration-response curve where the effect stands at 90%. With `O=C(c1ccc(CNc2c(N3CCOCC3)c(=O)c2=O)cc1)N1CCC(c2ccccc2)CC1`, in assay [1], the IC90 is 16 µM and the IC50 is 3.43 µM. Consider `CCOC(=O)CSc1ncnc2c1cnn2-c1ccccc1`, for which, in assay [1], the IC90 is 39.5 µM and the IC50 is 15.3 µM. On to `CCOC(=O)N1CCC(Nc2c(Nc3cccc(CC)c3)c(=O)c2=O)CC1`, for which the growth inhibition in assay [2] (at 50 µM (top of the series)) is 3.52% (inactive). With `COCCNC(=O)CSc1nc2ccccc2c(=O)[nH]1`, in assay [2] (at 100 µM (top of the series)), the growth inhibition is -5.73% (inactive). As to `O=C(CSc1nc2c(c(=O)[nH]1)CCC2)NC1CCCCC1`, in assay [1], the IC90 was 3.92 µM and the IC50 turned out to be 2.97 µM. As to `CC1CCCN(C(=O)C2CCC(CNc3c(N4CCCCC4)c(=O)c3=O)CC2)C1` (stereo not given), the IC50 in assay [1] was 26.2 µM. `CCOC(=O)CSc1ncnc2c1cnn2-c1ccc(C)cc1C`: in assay [1], the IC90 was 3.65 µM and the IC50 is 2.42 µM. The matching figures for `O=C(CSc1nc2ccccc2c(=O)[nH]1)NC1CCCCC1`: less than 0.29 µM and 0.195 µM. The matching figures for `CC(C)CCNC(=O)CSc1nc2c(c(=O)[nH]1)CCCC2`: 6.12 µM and 4.43 µM. In the case of `Cc1cccc(N2CCN(C(=O)c3ccc(CNc4c(N5CCC(C)CC5)c(=O)c4=O)cc3)CC2)c1C`, in assay [1], the IC50 came to 42.1 µM. `CCC(C)NC(=O)CSc1nc2ccccc2c(=O)[nH]1` (stereo not given): in assay [1], the IC90 is 16.9 µM and the IC50 amounted to 15.7 µM.

The molecule `CC(C)CCNC(=O)CSc1nc2c(c(=O)[nH]1)CCCCC2` gave an IC50 in assay [1] of 99.6 µM. On to `O=C(NCc1ccc(C(=O)N2CCC(c3ccccc3)CC2)cc1)NC1CCCCC1`, for which, in assay [1], the IC90 was 88.7 µM and the IC50 turned out to be 69.1 µM. Take `O=C(c1ccc(CNc2c(N3CCCC3)c(=O)c2=O)cc1)N1CC=C(c2ccccc2)CC1`: the IC50 in assay [1] was 3.22 µM and 2.96 µM.

As to `CC(=O)c1ccc(NC(=O)c2ccc(CNc3c(N4CCOCC4)c(=O)c3=O)cc2)cc1`, the IC50 in assay [1] was found to be 50 µM. With `O=C(c1ccc(CNc2c(N3CCOCC3)c(=O)c2=O)cc1)N1CC=C(c2ccccc2)CC1`, in assay [1], the IC90 was 6.81 µM and the IC50 stood at 0.957 µM. In assay [1], `CC(C)OC(=O)CSc1ncnc2c1cnn2-c1ccccc1` gave an IC50 of 28.7 µM.

For `COc1ccc(N2CCN(C(=O)c3ccc(CNC(=O)NCc4ccc(Cl)cc4)cc3)CC2)cc1`, the growth inhibition in assay [2] (at 100 µM (top of the series)) is 3.4% (inactive). The same measure, in the same setting: the same measure for `COC(=O)C(Cc1ccccc1)NC(=O)CSc1nc2ccccc2c(=O)[nH]1` (stereo not given): 4.82% (inactive). With `COc1ccc(N2CCN(C(=O)c3ccc(CNc4c(N5CCCC(C)C5)c(=O)c4=O)cc3)CC2)cc1` (stereo not given), in assay [1], the IC90 is 46.9 µM and the IC50 was found to be 28.1 µM. `CC1CC(C)CN(C(=O)C2CCC(CNc3c(N4CCCCC4)c(=O)c3=O)CC2)C1` (stereo not given): in assay [1], the IC50 is 13.7 µM and 29 µM. On the same count and under the same terms, the same measure for `O=C(c1ccc(CNc2c(N3CCCC3)c(=O)c2=O)cc1)N1CCC(c2ccccc2)CC1`: 79.7 µM.

For the molecule `O=C(NCc1ccc(C(=O)N2CCN(c3ccccc3)CC2)cc1)NC1CCCCC1`, the growth inhibition in assay [2] (at 100 µM (top of the series)) was 2.95% (inactive). As for `O=C(CSc1nc2c(c(=O)[nH]1)CCCC2)NC1CCCCC1`, in assay [1], the IC90 was 3.12 µM and the IC50 is 1.97 µM. Take `CC1CCN(C(=O)c2ccc(CNc3c(N4CCCC4)c(=O)c3=O)cc2)CC1`: in assay [1], the IC50 is 8.48 µM. Take `O=C(NCCc1ccc(Cl)cc1)c1ccc(CNc2c(N3CCOCC3)c(=O)c2=O)cc1`: in assay [1], the IC90 was 19.1 µM; the IC50 was 10.5 µM and 12.5 µM. `O=C(c1ccc(CNc2c(N3CCCC3)c(=O)c2=O)cc1)N1CCc2ccccc2C1` had an IC50 in assay [1] of 5.06 µM. For `CC(C)CCNC(=O)CSc1nc2ccccc2c(=O)[nH]1`, in assay [1], the IC90 is 0.78 µM and the IC50 stood at 0.696 µM.

In assay [1], `O=C(NCCc1ccc(Cl)cc1)C1CCC(CNc2c(N3CCCCC3)c(=O)c2=O)CC1` (stereo not given) returned an IC50 of 37.1 µM. In the case of `CC1CCCN(c2c(NCc3ccc(C(=O)N4CC=C(c5ccccc5)CC4)cc3)c(=O)c2=O)C1` (stereo not given), in assay [1], the IC90 was 11.8 µM and the IC50 was determined as 7.54 µM. The matching figures for `O=C(CSc1nc2ccccc2c(=O)[nH]1)NC1CCOCC1`: 26 µM and 23.1 µM. `CC1CC(C)CN(C(=O)c2ccc(CNc3c(N4CCCC4)c(=O)c3=O)cc2)C1` (stereo not given): the IC50 in assay [1] came out at 8.84 µM. With `Cc1cccc(N2CCN(C(=O)c3ccc(CNc4c(N5CCC(C)CC5)c(=O)c4=O)cc3)CC2C)c1` (stereo not given), in assay [1], the IC90 is 41.3 µM and the IC50 was determined as 26.9 µM. With `O=C(NCc1ccc(C(=O)N2CCC(c3ccccc3)CC2)cc1)Nc1ccc(Cl)cc1`, in assay [1], the IC90 is 94 µM and the IC50 is 74.4 µM. `CCOc1ccc(NC(=O)c2ccc(CNc3c(N4CCCC4)c(=O)c3=O)cc2)cc1`: the growth inhibition in assay [2] (at 100 µM (top of the series)) is -10% (inactive). `COC(=O)CSc1ncnc2c1cnn2-c1ccc(C)cc1C`: in assay [1], the IC90 is 3.65 µM and the IC50 came to 2.57 µM. In the case of `O=C(CSc1nc2c(c(=O)[nH]1)CN(Cc1ccccc1)CC2)NC1CCCCC1`, the growth inhibition in assay [2] (at 100 µM (top of the series)) is -0.3% (inactive).
